Measurements published in patent US20250345443A1, “PHARMACEUTICAL COMPOUND AND USE THEREOF” (DUALITY BIOLOGICS (SUZHOU) CO., LTD., priority 2022, published 2025).

Experiments:
Format in all cases: cell-based
[1] = target: T1, hTLR7 (human Toll-like receptor 7) (Homo sapiens, UniProt Q9NYK1); experiment: Agonistic activity of compounds on hTLR7 (HEK-Blue hTLR7 cells, QUANTI-Blue OD650); conditions: 24 h
T1 construct: host or cells: HEK-Blue hTLR7 cells
T1 sequence (Q9NYK1 27-1049): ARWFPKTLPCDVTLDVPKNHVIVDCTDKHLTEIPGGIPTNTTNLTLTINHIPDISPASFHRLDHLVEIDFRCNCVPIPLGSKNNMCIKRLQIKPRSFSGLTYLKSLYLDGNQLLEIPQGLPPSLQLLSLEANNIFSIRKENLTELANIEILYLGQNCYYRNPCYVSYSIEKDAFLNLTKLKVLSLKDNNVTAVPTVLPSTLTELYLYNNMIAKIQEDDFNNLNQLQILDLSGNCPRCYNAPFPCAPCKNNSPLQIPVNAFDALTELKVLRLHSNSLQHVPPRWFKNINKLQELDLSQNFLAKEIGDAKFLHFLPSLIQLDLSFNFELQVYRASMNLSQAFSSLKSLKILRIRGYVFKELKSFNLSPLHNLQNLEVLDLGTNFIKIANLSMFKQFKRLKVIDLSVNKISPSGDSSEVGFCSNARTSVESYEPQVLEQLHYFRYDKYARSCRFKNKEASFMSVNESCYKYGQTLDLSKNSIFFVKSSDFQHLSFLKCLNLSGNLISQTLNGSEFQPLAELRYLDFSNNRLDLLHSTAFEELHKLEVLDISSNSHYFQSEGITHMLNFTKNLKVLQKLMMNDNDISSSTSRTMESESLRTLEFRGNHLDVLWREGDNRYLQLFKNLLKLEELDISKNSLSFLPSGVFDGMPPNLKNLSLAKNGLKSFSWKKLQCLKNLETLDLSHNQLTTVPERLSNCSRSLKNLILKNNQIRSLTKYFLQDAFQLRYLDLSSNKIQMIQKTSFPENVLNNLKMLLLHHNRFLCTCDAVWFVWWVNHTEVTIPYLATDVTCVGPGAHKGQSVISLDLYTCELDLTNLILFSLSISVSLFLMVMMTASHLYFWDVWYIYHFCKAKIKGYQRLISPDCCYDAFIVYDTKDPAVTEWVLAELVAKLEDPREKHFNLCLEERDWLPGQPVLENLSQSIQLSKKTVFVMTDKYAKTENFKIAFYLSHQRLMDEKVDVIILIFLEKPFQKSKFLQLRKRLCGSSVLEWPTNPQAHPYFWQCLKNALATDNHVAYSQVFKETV
Experimental: (§1) In this example, the agonistic activity of the compounds of the present application on hTLR7 (human Toll-like receptor 7) and hTLR8 (human Toll-like receptor 8) was assessed; the induction activity of the compounds on human PBMCs for TNF-α and IFN-α production was assessed in human PBMCs (human peripheral blood mononuclear cells).
(§2) All compounds were formulated in DMSO into 30 mM concentrated stock solutions and preserved at 4° C. […] HEK-Blue hTLR7 and HEK-Blue hTLR8 cell lines were purchased from InvivoGen, and human PBMCs were purchased from Shanghai Saily Biotechnology Co., Ltd. (Cat. No. XFB—HP100B).
(§3) Compound dilution: The compounds of the present application were diluted with DMSO, for example, to about 15 mM. The reference compounds were diluted and then sequentially added to cell plates. […] DMSO was added to the negative control wells at 0.2 μL/well, and the reference compounds were added to the positive control wells. The final concentration of DMSO was 0.2%.
(§4) Cell plating: When an 80% confluence of HEK Blue hTLR7&8 cells in the culture flask was observed under a microscope, the culture medium was discarded, 10 mL of detection medium was added, and the cells were pipetted to form a single-cell suspension. The cells were counted using a cell counter and diluted to 500,000 cells/mL. The cells were plated at 100 μL/50,000 cells/well in the 96-well plates containing the compounds. The compounds and cells were co-incubated in an incubator at 37° C. with 5% CO2 for 24 h.
(§5) Compound activity detection: 20 μL of cell supernatant was taken from each well and added to an experimental plate containing QUANTI-Blue™ reagent at 180 μL/well. The plate was incubated at 37° C. for 1 h, and then the absorbance at 650 nm (OD650) was measured on the multimode microplate reader Flexstation III.
(§6) The EC50 values of the compounds were calculated.

[2] = target: T2, hTLR8 (human Toll-like receptor 8) (Homo sapiens, UniProt Q9NR97); experiment: Agonistic activity of compounds on hTLR8 (HEK-Blue hTLR8 cells, QUANTI-Blue OD650); conditions: 24 h
T2 construct: host or cells: HEK-Blue hTLR8 cells
T2 sequence (Q9NR97 27-1041): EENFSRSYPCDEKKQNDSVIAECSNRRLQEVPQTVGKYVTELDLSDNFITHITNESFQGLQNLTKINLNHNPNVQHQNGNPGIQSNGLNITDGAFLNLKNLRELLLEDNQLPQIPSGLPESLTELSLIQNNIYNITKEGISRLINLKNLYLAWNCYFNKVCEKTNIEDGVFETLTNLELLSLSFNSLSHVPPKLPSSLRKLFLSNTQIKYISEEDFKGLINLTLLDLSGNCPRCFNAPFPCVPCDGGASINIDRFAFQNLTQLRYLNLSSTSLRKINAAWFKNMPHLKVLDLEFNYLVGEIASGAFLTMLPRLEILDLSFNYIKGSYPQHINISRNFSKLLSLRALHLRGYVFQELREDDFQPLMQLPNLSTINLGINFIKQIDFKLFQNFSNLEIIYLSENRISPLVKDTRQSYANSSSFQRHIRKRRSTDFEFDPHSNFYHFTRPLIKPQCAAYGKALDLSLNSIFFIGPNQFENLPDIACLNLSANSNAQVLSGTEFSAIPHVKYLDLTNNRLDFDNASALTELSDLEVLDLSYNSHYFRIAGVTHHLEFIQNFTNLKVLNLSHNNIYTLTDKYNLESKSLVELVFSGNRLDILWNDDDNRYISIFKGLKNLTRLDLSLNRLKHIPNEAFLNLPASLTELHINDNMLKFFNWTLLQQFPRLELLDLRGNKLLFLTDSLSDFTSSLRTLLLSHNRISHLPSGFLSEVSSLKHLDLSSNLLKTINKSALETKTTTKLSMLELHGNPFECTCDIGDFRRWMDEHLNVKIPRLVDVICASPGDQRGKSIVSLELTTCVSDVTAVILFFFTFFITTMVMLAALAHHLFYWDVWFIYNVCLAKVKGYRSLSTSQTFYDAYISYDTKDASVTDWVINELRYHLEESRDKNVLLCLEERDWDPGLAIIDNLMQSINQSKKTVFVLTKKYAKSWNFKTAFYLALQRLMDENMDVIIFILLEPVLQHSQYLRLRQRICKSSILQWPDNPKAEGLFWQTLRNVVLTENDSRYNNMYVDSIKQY
Experimental: as §1, §2, §3, §4, §5, §6

human PBMCs [3] = experiment: Induction activity of compounds on TNF-α in human PBMCs (ELISA); conditions: 24 h
Experimental: (§7) PBMC cells were treated with the compounds. The compounds of the present application were diluted with DMSO, for example, to about 15 mM. The reference compounds were diluted to 5 mg/mL and then sequentially added to cell plates. The compounds were serially 3-fold diluted to give a total of 8 concentrations and added to cell plates, with two replicate wells set for each concentration. DMSO was added to the negative control wells at 0.4 μL/well, and the reference compounds at 5 mg/mL were added to the positive control wells at 0.4 μL/well. The final concentration of DMSO was 0.2%. Frozen human PBMCs in cryopreservation tubes were quickly thawed in a 37° C. water bath and transferred into 50-mL centrifuge tubes. Pre-warmed RPMI1640 medium was gradually added, and the mixture was well mixed and centrifuged for 15 min before the supernatant was discarded. The cells were resuspended in a culture medium and then counted. The cell suspension was adjusted to 2.5×10^6 cells/mL with the culture medium. Diluted cells were added at 200 μL/500,000 cells/well in the 96-well plates containing the compounds.
The plate was then washed 3 times.
(§8) Compound activity data analysis: The OD450 values were converted to TNF-α and IFN-α contents by GraphPad Prism software analysis and fitted to give dose-response curves of the compounds. The EC50 values of the compounds were calculated.

human PBMCs [4] = experiment: Induction activity of compounds on IFN-α in human PBMCs (ELISA); conditions: 24 h
Experimental: as §7, §8

hTLR8 = target: T3, hTLR8 (Homo sapiens, UniProt Q9NR97); experiment: Stimulation of spleen cells from hTLR8-C57BL/6 mice with TLR8 agonists (ELISA)
T3 construct: tissue Biocytogen; host or cells: spleen cells from hTLR8-C57BL/6 (hTLR8 humanized, knock-in) mice
T3 sequence (Q9NR97 27-1041): T2 sequence (Q9NR97 27-1041)

EC50 [1]	EC50 [2]	SMILES	EC50 (human PBMCs [3]; PBMC)	EC50 (human PBMCs [4]; PBMC)	secretion of TNFα and IFNγ by spleen cells (hTLR8)	EC50 (human PBMCs [3])	EC50 (human PBMCs [4])
434 nM	55.2 nM	CCCCc1nc2c(N)nc3cccc(CCCCN)c3c2s1 [compound 16]	117 nM	451 nM			
73.3 nM	6.52 nM	CCCCc1nc2c(N)nc3cccc(CCCCN)c3c2o1 [compound 20]					
14400 nM	60.8 nM	CCCN(Cc1cccc(N)c1)C(=O)C1=Cc2ccc(-c3cncc(CO)c3)cc2N=C(N)C1 [compound 13]					
192 nM	173 nM	CCCCc1nc2c(N)nc3cccc(CCCCCCN)c3c2s1 [compound 17]	132 nM	50 nM			
		CCCN(Cc1ccc(N)cc1)C(=O)C1=Cc2ccc(-c3ccc(C(=O)N4CC[C@@H](O)C4)cc3)cc2N=C(N)C1 [compound 11]	303 nM	453 nM			
1670 nM	432 nM	CCCN(Cc1ccc(N)cc1)C(=O)C1=Cc2ccc(-c3ccc4c(c3)C(=O)OC4)cc2N=C(N)C1 [compound 12]	351 nM	191 nM			
		CCCC[C@](C)(CO)Nc1nc(N)nc2cc(F)cnc12 [GS-9688]			increase in the secretion of TNFα and IFNγ		
> 30000 nM	21.1 nM	CCCN(CCC)C(=O)C1=Cc2ccc(-c3ccc(C(=O)N4CCCC4)cc3)cc2N=C(N)C1 [VTX-2337, reference compound]	1010 nM	> 7500 nM			
191 nM	11.6 nM	CCCCc1nc2c(N)nc3cccc(CCCCCN)c3c2s1 [compound 14]	147 nM	74 nM			
6260 nM	33.2 nM	CCCN(Cc1ccc(N)cc1)C(=O)C1=Cc2ccc(-c3cncc(CO)c3)cc2N=C(N)C1 [compound 10]	375 nM	45 nM			
149 nM	11.3 nM	CCCCc1nc2c(N)nc3cccc(CCCCCN)c3c2o1 [compound 19]					
1060 nM	260 nM	CCOCc1nc2c(N)nc3cccc(CCCCCN)c3c2s1 [compound 18]					
		CCOCc1nc2c(N)nc3ccccc3c2n1CC(C)(C)O [R848, reference compound]				2330 nM	202 nM
